The text below walks through data of US20240025884A1 (Dong-A ST Co., Ltd., priority 2022, published 2024).

The structures appear in SMILES notation. pIC50: −log10 of the molar value. Where only a bound is given, the exact number is not on record here.

GCN2, sequence (Q9P2K8 whole entry): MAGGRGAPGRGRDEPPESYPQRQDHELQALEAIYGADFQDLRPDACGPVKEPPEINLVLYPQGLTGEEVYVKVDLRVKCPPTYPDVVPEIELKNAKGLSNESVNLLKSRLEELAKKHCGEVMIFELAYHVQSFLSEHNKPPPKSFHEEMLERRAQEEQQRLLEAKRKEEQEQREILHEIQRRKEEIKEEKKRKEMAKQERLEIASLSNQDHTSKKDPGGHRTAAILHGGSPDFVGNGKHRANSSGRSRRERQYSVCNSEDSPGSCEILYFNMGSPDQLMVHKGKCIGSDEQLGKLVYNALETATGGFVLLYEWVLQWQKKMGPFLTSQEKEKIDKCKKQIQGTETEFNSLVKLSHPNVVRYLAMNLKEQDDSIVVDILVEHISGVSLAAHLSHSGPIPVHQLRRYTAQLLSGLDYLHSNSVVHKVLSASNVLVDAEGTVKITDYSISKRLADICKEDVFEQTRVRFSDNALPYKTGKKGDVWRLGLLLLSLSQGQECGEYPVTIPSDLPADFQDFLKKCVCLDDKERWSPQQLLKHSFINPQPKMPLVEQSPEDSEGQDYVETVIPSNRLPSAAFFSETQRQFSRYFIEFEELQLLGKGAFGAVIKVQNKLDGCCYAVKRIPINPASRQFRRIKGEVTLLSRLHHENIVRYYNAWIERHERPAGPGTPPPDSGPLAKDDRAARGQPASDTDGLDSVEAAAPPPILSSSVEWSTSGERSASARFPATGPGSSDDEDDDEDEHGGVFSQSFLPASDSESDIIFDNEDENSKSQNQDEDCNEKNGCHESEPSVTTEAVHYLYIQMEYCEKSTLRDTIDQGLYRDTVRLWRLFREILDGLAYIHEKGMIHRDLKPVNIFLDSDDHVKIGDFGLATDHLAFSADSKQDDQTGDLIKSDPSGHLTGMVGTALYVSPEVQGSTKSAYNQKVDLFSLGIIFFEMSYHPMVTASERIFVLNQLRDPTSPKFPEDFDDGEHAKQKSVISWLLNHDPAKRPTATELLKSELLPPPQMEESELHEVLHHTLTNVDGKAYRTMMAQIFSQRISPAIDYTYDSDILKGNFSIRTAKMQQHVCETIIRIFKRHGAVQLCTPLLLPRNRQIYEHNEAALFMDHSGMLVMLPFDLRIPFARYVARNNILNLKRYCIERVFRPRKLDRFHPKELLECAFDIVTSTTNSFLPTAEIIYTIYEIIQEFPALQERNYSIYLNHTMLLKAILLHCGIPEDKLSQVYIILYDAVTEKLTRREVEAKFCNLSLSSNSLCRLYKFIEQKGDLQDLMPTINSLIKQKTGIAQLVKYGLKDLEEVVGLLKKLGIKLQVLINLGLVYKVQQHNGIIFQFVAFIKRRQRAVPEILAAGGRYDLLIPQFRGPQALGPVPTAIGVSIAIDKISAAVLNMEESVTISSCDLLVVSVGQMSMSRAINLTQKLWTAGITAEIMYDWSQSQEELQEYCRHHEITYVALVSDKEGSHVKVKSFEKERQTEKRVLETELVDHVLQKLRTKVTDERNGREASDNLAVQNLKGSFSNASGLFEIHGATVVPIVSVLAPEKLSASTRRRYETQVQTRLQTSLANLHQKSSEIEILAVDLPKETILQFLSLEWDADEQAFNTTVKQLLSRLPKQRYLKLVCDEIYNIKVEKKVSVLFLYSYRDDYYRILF

In the test the target is GCN2 (Homo sapiens (Human), UniProt Q9P2K8). The test can be described thus: GCN2 Biochemical Assay (TR-FRET, GFP-eIF2S1 substrate phosphorylation). The following applies: read-out: IC50 (GCN2 Inhibitory Activity). The method in brief:
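TR-FRET readout (Ex 340, Em 490/520 nm) after 2–3 h with Tb-labelled phospho-eIF2S1 antibody in stop mix, following a 70 min room-temperature kinase step. Reaction: in-house GCN2, GFP-eIF2S1, ATP, tRNA in Tris pH 7.5 (2× stocks 1.6 nM, 50 nM, 0.2 mM); compounds tested at 10 concentrations, with a phospho-substrate artifact counter-plate.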
Background: In TR-FRET formats the signal depends on donor and acceptor labels being close together.
Broadly, the pIC50 is the negative decadic logarithm of the IC50, by convention in mol/L. On to `Cc1cnc(Nc2cc(C)n(C)n2)nc1-c1c[nH]c2c(N3Cc4c(O)cccc4C3=O)cccc12` [Example 281, 2-(3-(2-((1,5-dimethyl-1H-pyrazol-3-yl)amino)-5-methylpyrimidin-4-yl)-1H-indol-7-yl)-4-hydroxyisoindolin-1-one], for which the pIC50 is above 8.00.
For `Cc1cnc(Nc2cc(C)n(C)n2)nc1-c1c[nH]c2c(N3Cc4c(NC(=O)C5CCOCC5)cccc4C3=O)cccc12` [Example 337, N-(2-(3-(2-((1,5-dimethyl-1H-pyrazol-3-yl)amino)-5-methylpyrimidin-4-yl)-1H-indol-7-yl)-1-oxoisoindolin-4-yl)tetrahydro-2H-pyran-4-carboxamide] the value was above 8.00; for `Cc1cnc(Nc2cc(C)n(C)n2)nc1-c1c[nH]c2c(N3Cc4c(NC(=O)C5CCC(C)CC5)cccc4C3=O)cccc12` (stereo not drawn) [Example 303, N-(2-(3-(2-((1,5-dimethyl-1H-pyrazol-3-yl)amino)-5-methylpyrimidin-4-yl)-1H-indol-7-yl)-1-oxoisoindolin-4-yl)-4-methylcyclohexane-1-carboxamide], above 8.00; for `Cc1cnc(Nc2cc(C)n(C)n2)nc1-c1c[nH]c2c(N3Cc4c(-c5ccncc5)ccnc4C3=O)cccc12` [Example 494, 6-(3-(2-((1,5-dimethyl-1H-pyrazol-3-yl)amino)-5-methylpyrimidin-4-yl)-1H-indol-7-yl)-4-(pyridin-4-yl)-5,6-dihydro-7H-pyrrolo[3,4-b]pyridin-7-one], above 8.00.
With `CCCCN(CCCC)C(=O)/C=C/c1cccc2c1CN(c1cccc3c(-c4nc(Nc5cc(C)n(C)n5)ncc4C)c[nH]c13)C2=O` [Example 369, (E)-N,N-dibutyl-3-(2-(3-(2-((1,5-dimethyl-1H-pyrazol-3-yl)amino)-5-methylpyrimidin-4-yl)-1H-indol-7-yl)-1-oxoisoindolin-4-yl)acrylamide] the figure was 7.00 to 8.00; with `Cc1cnc(Nc2cc(C)n(C)n2)nc1-c1c[nH]c2c(N3Cc4c(NCc5ccccc5)cccc4C3=O)cccc12` [Example 354, 4-(benzylamino)-2-(3-(2-((1,5-dimethyl-1H-pyrazol-3-yl)amino)-5-methylpyrimidin-4-yl)-1H-indol-7-yl)isoindolin-1-one], 7.00 to 8.00; with `Cc1cnc(Nc2cc(C)n(C)n2)nc1-c1c[nH]c2c(N3Cc4c(NC(=O)[C@H]5CCNC5)cccc4C3=O)cccc12` [Example 316, (S)-N-(2-(3-(2-((1,5-dimethyl-1H-pyrazol-3-yl)amino)-5-methylpyrimidin-4-yl)-1H-indol-7-yl)-1-oxoisoindolin-4-yl)pyrrolidine-3-carboxamide], 7.00 to 8.00.
For the compound `Cc1cnc(Nc2cc(C)n(C)n2)nc1-c1c[nH]c2c(N3Cc4cc(C5=CCNCC5)cnc4C3=O)cccc12` [Example 498, 6-(3-(2-((1,5-dimethyl-1H-pyrazol-3-yl)amino)-5-methylpyrimidin-4-yl)-1H-indol-7-yl)-3-(1,2,3,6-tetrahydropyridin-4-yl)-5,6-dihydro-7H-pyrrolo[3,4-b]pyridin-7-one], the pIC50 is above 8.00.
For `Cc1cnc(Nc2cc(C)n(C)n2)nc1-c1c[nH]c2c(NC(=O)CN3CC[C@H](Oc4ccc(F)c(F)c4)C3)cccc12` [Example 84, (S)-2-(3-(3,4-difluorophenoxy)pyrrolidin-1-yl)-N-(3-(2-((1,5-dimethyl-1H-pyrazol-3-yl)amino)-5-methylpyrimidin-4-yl)-1H-indol-7-yl)acetamide] the value was 6.00 to 7.00; for `Cc1cnc(Nc2cc(C)n(C)n2)nc1-c1c[nH]c2c(NC(=O)CN3CC[C@H](Oc4ncnc(NC5CC5)n4)C3)cccc12` [Example 137, (S)-2-(3-((4-(cyclopropylamino)-1,3,5-triazin-2-yl)oxy)pyrrolidin-1-yl)-N-(3-(2-((1,5-dimethyl-1H-pyrazol-3-yl)amino)-5-methylpyrimidin-4-yl)-1H-indol-7-yl)acetamide], above 8.00.
For `CNC(=O)c1cncc(O[C@H]2CCN(CC(=O)Nc3cccc4c(-c5nc(Nc6cc(C)n(C)n6)ncc5C)c[nH]c34)C2)n1` [Example 133, (S)-6-((1-(2-((3-(2-((1,5-dimethyl-1H-pyrazol-3-yl)amino)-5-methylpyrimidin-4-yl)-1H-indol-7-yl)amino)-2-oxoethyl)pyrrolidin-3-yl)oxy)-N-methylpyrazine-2-carboxamide] the value was above 8.00; for `Cc1ccccc1-c1cccc2c1CN(c1cccc3c(-c4nc(Nc5cc(C)n(C)n5)ncc4C)c[nH]c13)C2=O` [Example 440, 2-(3-(2-((1,5-dimethyl-1H-pyrazol-3-yl)amino)-5-methylpyrimidin-4-yl)-1H-indol-7-yl)-4-(o-tolyl)isoindolin-1-one], 7.00 to 8.00.
